For this test, the target named is Acetylcholinesterase (Homo sapiens, UniProt P22303). Description: Inhibition of AChE by Ellman's method. On the technique in general: Ellman's reagent forms a yellow product with free thiols.

The values below come from ChEMBL document CHEMBL1649337, “Triterpenoidal alkaloids from Buxus natalensis and their acetylcholinesterase inhibitory activity” (J Nat Prod, 2010).

Chain of Acetylcholinesterase (P22303 whole entry): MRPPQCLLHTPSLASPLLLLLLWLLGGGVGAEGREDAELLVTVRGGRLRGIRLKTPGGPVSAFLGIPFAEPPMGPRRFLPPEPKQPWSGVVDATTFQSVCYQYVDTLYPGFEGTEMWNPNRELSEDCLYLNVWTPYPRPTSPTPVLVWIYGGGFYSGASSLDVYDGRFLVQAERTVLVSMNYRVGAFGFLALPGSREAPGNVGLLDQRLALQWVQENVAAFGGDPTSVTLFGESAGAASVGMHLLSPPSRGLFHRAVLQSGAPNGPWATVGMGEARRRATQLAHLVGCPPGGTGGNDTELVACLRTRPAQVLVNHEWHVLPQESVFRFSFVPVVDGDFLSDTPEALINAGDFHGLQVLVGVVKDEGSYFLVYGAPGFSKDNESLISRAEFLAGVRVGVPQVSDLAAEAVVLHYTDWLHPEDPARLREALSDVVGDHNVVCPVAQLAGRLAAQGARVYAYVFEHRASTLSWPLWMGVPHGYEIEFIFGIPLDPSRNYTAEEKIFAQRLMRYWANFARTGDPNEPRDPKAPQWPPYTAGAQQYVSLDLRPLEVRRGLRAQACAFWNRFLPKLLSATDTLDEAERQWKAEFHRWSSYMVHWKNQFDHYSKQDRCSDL

With `CC(=O)O[C@H]1C[C@@H]2C(=CC[C@]3(C)[C@@H]([C@H](C)N(C)C)[C@H](O)C[C@@]23C)C[C@@]23O[C@@H]2[C@H]2OC[C@](C)([C@H]2NC(=O)c2ccccc2)[C@H]13`, the concentration for half-maximal inhibition (IC50) (read-out: IC50) turned out to be 3 µM.

In the case of `C[C@@H]([C@H]1[C@H](O)C[C@@]2(C)[C@@H]3C[C@H](O)[C@H]4[C@]5(C)CO[C@]4(C=C[C@@H]5NC(=O)c4ccccc4)CC3=CC[C@]12C)N(C)C`, the IC50 (read-out: IC50) is 8.5 µM.

For `C[C@@H]1[C@@H]2CC[C@@H]3C(=CC[C@]4(C)[C@@H]([C@H](C)N(C)C)[C@H](O)C[C@@]34C)C=C2CC[C@@H]1N(C)C` [31-DEMETHYLBUXAMINOL], the half-inhibitory concentration (IC50) (read-out: IC50) came out at 25.8 µM.

Take `CC(=O)O[C@@H]1C[C@@]2(C)[C@@H]3C[C@H]4OC[C@@]5(C)[C@@H](NC(=O)c6ccccc6)C=C[C@@](O)(CC3=CC[C@]2(C)[C@H]1[C@H](C)N(C)C)[C@@H]45` [BUXAFURANAMIDE]: under “read-out: IC50”, the half-maximal inhibitory concentration (IC50) came to 14 µM.

`CC(=O)O[C@@H]1C[C@@]2(C)[C@@H]3CC[C@H]4[C@](C)(CO)[C@@H](NC(=O)c5ccccc5)C=C[C@]4(O)CC3=CC[C@]2(C)[C@H]1[C@H](C)N(C)C` [BUXALONGIFOLAMIDINE]: the IC50 (read-out: IC50) is 30.2 µM.

Regarding `C[C@@H]([C@H]1CC[C@@]2(C)[C@@H]3CC[C@@H]4C(=CC3=CC[C@]12C)CC[C@H](N(C)C)C4(C)C)N(C)C` [BUXAMINE A], the half-maximal inhibitory concentration (IC50) (read-out: IC50) came to 80 µM.

As to `C[C@@H]([C@H]1[C@H](O)C[C@@]2(C)[C@@H]3CC[C@@H]4C(=CC3=CC[C@]12C)CC[C@H](N(C)C)C4(C)C)N(C)C` [BUXAMINOL A], the IC50 (read-out: IC50) came out at 29.8 µM.

For the compound `CN[C@H]1CCC2=CC3=CC[C@]4(C)[C@@H]([C@H](C)N(C)C)[C@H](O)C[C@@]4(C)[C@@H]3CC[C@H]2C1(C)C` [BUXAMINOL C], the half-maximal inhibitory concentration (IC50) (read-out: IC50) came to 40 µM.

Consider `C/C=C1/C(=O)C[C@@]2(C)[C@@H]3CC[C@H]4C(C)(C)[C@@H](N(C)C)CC[C@@]45C[C@@]35CC[C@]12C` [CYCLOBUXOPHYLLINE K], for which, for the setting “read-out: IC50”, the IC50 came out at 58.2 µM.

For the compound `C[C@@H]([C@H]1[C@H](O)C[C@@]2(C)[C@@H]3C=C[C@H]4C(C)(C)[C@@H](N(C)C)[C@H](O)C[C@@]45C[C@@]35CC[C@]12C)N(C)C` [CYCLONATAMINOL], the IC50 (read-out: IC50) is 22.9 µM.

Turning to `NCCCCNC(=O)/C=C/c1ccc(O)cc1` [P-COUMAROYLPUTRESCINE], the IC50 entry is “Not Active”.

The IC50 is the concentration that gives 50% inhibition.
